35 compounds from patent publication US11072617B2, “Bicyclic sulfones and sulfoxides and methods of use thereof” (Genentech, Inc., priority 2017, dated 2021) can be followed below.

Structures are written as SMILES. Some results are limits rather than exact numbers.

This experiment addresses human RIP1 kinase domain (2-375) (Homo sapiens (Human), UniProt Q13546). In words: RIP1 kinase inhibition biochemical assay (Transcreener ADP, fluorescence polarization). Particulars: Ki app from tight-binding Morrison equation; 50 nM enzyme, 50 uM ATP, 2 hours incubation. The gist of the method:
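Baculovirus-expressed human RIP1 kinase domain (2-375), 50 nM, incubated 2 h with compounds in pH 7.5 Hepes, 30 mM MgCl2, 50 uM ATP, 0.5% DMSO. ADP detected by Transcreener fluorescence-polarization tracer displacement; Ki^app from Morrison tight-binding fit.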
Background: In fluorescence polarisation assays a small probe gives low polarisation when free and higher when bound to something large.

Sequence of human RIP1 kinase domain (2-375) (Q13546 2-375): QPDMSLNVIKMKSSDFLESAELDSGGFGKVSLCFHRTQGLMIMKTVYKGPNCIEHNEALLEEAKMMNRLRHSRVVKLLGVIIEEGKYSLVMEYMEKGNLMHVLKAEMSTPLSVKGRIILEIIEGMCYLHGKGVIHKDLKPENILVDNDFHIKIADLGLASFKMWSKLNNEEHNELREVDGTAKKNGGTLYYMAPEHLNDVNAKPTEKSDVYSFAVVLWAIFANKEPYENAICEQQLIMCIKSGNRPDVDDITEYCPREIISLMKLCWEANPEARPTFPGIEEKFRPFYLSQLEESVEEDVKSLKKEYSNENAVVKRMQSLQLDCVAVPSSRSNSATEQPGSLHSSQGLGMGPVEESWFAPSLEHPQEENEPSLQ

`[O-][S+](c1nc2n(n1)C(c1ccccc1)CC2)C(F)(F)F` (centres unmarked) [Example 10, 5-phenyl-2-(trifluoromethylsulfinyl)-6,7-dihydro-5H-pyrrolo[1,2-b][1,2,4]triazole] returned a Ki of 89 nM.
For `[O-][S@+](c1nc2n(n1)[C@H](c1ccccc1)CC2)C(F)F` [Example 11, (5S)-2-[(R)-difluoromethylsulfinyl]-5-phenyl-6,7-dihydro-5H-pyrrolo[1,2-b][1,2,4]triazole], the Ki amounted to 10 nM.
With `[O-][S@@+](c1nc2n(n1)[C@H](c1ccccc1)CC2)C(F)F` [Example 12, (5S)-2-[(S)-difluoromethylsulfinyl]-5-phenyl-6,7-dihydro-5H-pyrrolo[1,2-b][1,2,4]triazole], the Ki is 48 nM.
Under `O=S(=O)(c1nc2n(n1)[C@@H](c1ccccc1Cl)CC2)C(F)F` [Example 15, (5R)-5-(2-chlorophenyl)-2-(difluoromethylsulfonyl)-6,7-dihydro-5H-pyrrolo[1,2-b][1,2,4]triazole] stands 1600 nM; under `O=S(=O)(c1nc2n(n1)[C@H](c1ccccc1Cl)CC2)C(F)F` [Example 16, (5S)-5-(2-chlorophenyl)-2-(difluoromethylsulfonyl)-6,7-dihydro-5H-pyrrolo[1,2-b][1,2,4]triazole], 56 nM; under `[O-][S@@+](c1nc2n(n1)[C@H](c1ccccc1Cl)CC2)C(F)F` [Example 17, (5S)-5-(2-chlorophenyl)-2-[(S)-difluoromethylsulfinyl]-6,7-dihydro-5H-pyrrolo[1,2-b][1,2,4]triazole], 50 nM.
Next, `[O-][S@+](c1nc2n(n1)[C@H](c1ccccc1Cl)CC2)C(F)F` [Example 18, (5S)-5-(2-chlorophenyl)-2-[(R)-difluoromethylsulfinyl]-6,7-dihydro-5H-pyrrolo[1,2-b][1,2,4]triazole]: 8 nM; `[O-][S+](Cc1ccccc1)c1nc2n(n1)[C@H](c1ccccc1)C[C@@H]2F` (stereo partly drawn) [Example 20, (5S,7S)-2-benzylsulfinyl-7-fluoro-5-phenyl-6,7-dihydro-5H-pyrrolo[1,2-b][1,2,4]triazole]: 24 nM.
Under `[O-][S@@+](c1nc2n(n1)[C@H](c1ccccc1)C[C@@H]2F)C(F)F` [Example 21, (5S,7S)-2-[(S)-difluoromethylsulfinyl]-7-fluoro-5-phenyl-6,7-dihydro-5H-pyrrolo[1,2-b][1,2,4]triazole] stands 100 nM.
In turn, `[O-][S@+](c1nc2n(n1)[C@H](c1ccccc1)C[C@@H]2F)C(F)F` [Example 22, (5S,7S)-2-[(R)-difluoromethylsulfinyl]-7-fluoro-5-phenyl-6,7-dihydro-5H-pyrrolo[1,2-b][1,2,4]triazole] returned a Ki of 3 nM.
In turn, `CC(C)(C)[S+]([O-])c1nc2n(n1)[C@H](c1ccccc1)C[C@@H]2F` (stereo partly drawn) [Example 24, (5S,7S)-2-(tert-butylsulfinyl)-7-fluoro-5-phenyl-6,7-dihydro-5H-pyrrolo[1,2-b][1,2,4]triazole] returned a Ki of 20 nM.
The compound `[O-][S+](c1nc2n(n1)[C@H](c1ccccc1)C[C@@H]2F)C1CC1` (stereo partly drawn) [Example 27, (5S,7S)-2-cyclopropylsulfinyl-7-fluoro-5-phenyl-6,7-dihydro-5H-pyrrolo[1,2-b][1,2,4]triazole] had a Ki of 33 nM.
Next, `[O-][S@@+](c1nc2n(n1)[C@H](c1ccccc1)C[C@@H]2F)C1CC1` [Example 28, (5S,7S)-2-[(R)-cyclopropylsulfinyl]-7-fluoro-5-phenyl-6,7-dihydro-5H-pyrrolo[1,2-b][1,2,4]triazole]: 89 nM; `[O-][S@+](c1nc2n(n1)[C@H](c1ccccc1)C[C@@H]2F)C1CC1` [Example 29, (5S,7S)-2-[(S)-cyclopropylsulfinyl]-7-fluoro-5-phenyl-6,7-dihydro-5H-pyrrolo[1,2-b][1,2,4]triazole]: 4 nM; `O=S(=O)(c1nc2n(n1)[C@H](c1ccccc1)C[C@@H]2F)C1CC1` [Example 30, (5S,7S)-2-cyclopropylsulfonyl-7-fluoro-5-phenyl-6,7-dihydro-5H-pyrrolo[1,2-b][1,2,4]triazole]: 4 nM.
`O=S(=O)(c1cc2n(n1)[C@H](c1ccccc1)C[C@@H]2F)C1CC1` [Example 31, (4S,6S)-2-cyclopropylsulfonyl-4-fluoro-6-phenyl-5,6-dihydro-4H-pyrrolo[1,2-b]pyrazole] gave a Ki of 10 nM.
Under `O=S(=O)(c1nc2n(n1)[C@H](c1ccccc1F)C[C@@H]2F)C1CC1` [Example 33, (5S,7S)-2-cyclopropylsulfonyl-7-fluoro-5-(2-fluorophenyl)-6,7-dihydro-5H-pyrrolo[1,2-b][1,2,4]triazole] stands 5 nM; under `[2H][C@H]1C[C@@H](c2ccccc2)n2nc(S(=O)(=O)C3CC3)nc21` [Example 41, (5S,7S)-2-cyclopropylsulfonyl-7-deuterio-5-phenyl-6,7-dihydro-5H-pyrrolo[1,2-b][1,2,4]triazole], 140 nM; under `[O-][S+](c1nc2n(n1)[C@H](c1ccccc1)C[C@@H]2F)C1CC(F)(F)C1` (stereo partly drawn) [Example 49, (5S,7S)-2-(3,3-difluorocyclobutyl)sulfinyl-7-fluoro-5-phenyl-6,7-dihydro-5H-pyrrolo[1,2-b][1,2,4]triazole], 12 nM.
Under `[O-][S+](c1nc2n(n1)[C@H](c1cccc(F)c1)C[C@@H]2F)C(F)F` (stereo partly drawn) [Example 54, (5S,7S)-2-((difluoromethyl)sulfinyl)-7-fluoro-5-(3-fluorophenyl)-6,7-dihydro-5H-pyrrolo[1,2-b][1,2,4]triazole] stands 17 nM; under `O=S(=O)(c1nc2n(n1)[C@H](c1cc(Cl)ccc1F)C[C@@H]2F)C(F)F` [Example 66, (5S,7S)-5-(5-chloro-2-fluorophenyl)-2-((difluoromethyl)sulfonyl)-7-fluoro-6,7-dihydro-5H-pyrrolo[1,2-b][1,2,4]triazole], 69 nM.
Next, `[O-][S@+](CF)c1nc2n(n1)[C@H](c1ccccc1)C[C@@H]2F` [Example 71]: 90 nM.
In the case of `N#CC[S+]([O-])c1nc2n(n1)[C@H](c1ccccc1)C[C@@H]2F` (stereo partly drawn) [Example 102, 2-[[(5S,7S)-7-fluoro-5-phenyl-6,7-dihydro-5H-pyrrolo[1,2-b][1,2,4]triazol-2-yl]sulfinyl]acetonitrile], the Ki is 18 nM.
Next, `CC(C)(C#N)[S+]([O-])c1nc2n(n1)[C@H](c1ccccc1)C[C@@H]2F` (stereo partly drawn) [Example 103, 2-[[(5S,7S)-7-fluoro-5-phenyl-6,7-dihydro-5H-pyrrolo[1,2-b][1,2,4]triazol-2-yl]sulfinyl]-2-methyl-propanenitrile]: 150 nM; `C[S+]([O-])c1nc2n(n1)[C@H](c1ccccc1)C[C@@H]2F` (stereo partly drawn) [Example 105, (5S,7S)-7-fluoro-2-methylsulfinyl-5-phenyl-6,7-dihydro-5H-pyrrolo[1,2-b][1,2,4]triazole]: 46 nM; `CC[S+]([O-])c1nc2n(n1)[C@H](c1ccccc1)C[C@@H]2F` (stereo partly drawn) [Example 107, (5S,7S)-2-ethylsulfinyl-7-fluoro-5-phenyl-6,7-dihydro-5H-pyrrolo[1,2-b][1,2,4]triazole]: 34 nM.
Under `CC(C)[S+]([O-])c1nc2n(n1)[C@H](c1ccccc1)C[C@@H]2F` (stereo partly drawn) [Example 109, (5S,7S)-7-fluoro-2-isopropylsulfinyl-5-phenyl-6,7-dihydro-5H-pyrrolo[1,2-b][1,2,4]triazole] stands 19 nM; under `[O-][S+](CC1CC1)c1nc2n(n1)[C@H](c1ccccc1)C[C@@H]2F` (stereo partly drawn) [Example 111, (5S,7S)-2-(cyclopropylmethylsulfinyl)-7-fluoro-5-phenyl-6,7-dihydro-5H-pyrrolo[1,2-b][1,2,4]triazole], 44 nM; under `[O-][S+](CC(F)(F)F)c1nc2n(n1)[C@H](c1ccccc1)C[C@@H]2F` (stereo partly drawn) [Example 113, (5S,7S)-7-fluoro-5-phenyl-2-(2,2,2-trifluoroethylsulfinyl)-6,7-dihydro-5H-pyrrolo[1,2-b][1,2,4]triazole], 28 nM.
With `COC[S+]([O-])c1nc2n(n1)[C@H](c1ccccc1)C[C@@H]2F` (stereo partly drawn) [Example 115, (5S,7S)-7-fluoro-2-(methoxymethylsulfinyl)-5-phenyl-6,7-dihydro-5H-pyrrolo[1,2-b][1,2,4]triazole], the Ki amounted to 31 nM.
Next, `[O-][S+](c1nc2n(n1)[C@H](c1ccccc1)C[C@@H]2F)C1CC1(F)F` (stereo partly drawn) [Example 117, (5S,7S)-2-((2,2-difluorocyclopropyl)sulfinyl)-7-fluoro-5-phenyl-6,7-dihydro-5H-pyrrolo[1,2-b][1,2,4]triazole]: 12 nM.
Next, `O=S(=O)(c1nc2n(n1)[C@H](c1cccc(F)c1F)C[C@@H]2F)[C@H]1CC1(F)F` [Example 121, (5S,7S)-2-(2,2-difluorocyclopropyl)sulfonyl-5-(2,3-difluorophenyl)-7-fluoro-6,7-dihydro-5H-pyrrolo[1,2-b][1,2,4]triazole]: less than 5 nM; `O=S(=O)(c1nc2n(n1)[C@H](c1c(F)cccc1F)C[C@@H]2F)C1CC1(F)F` (stereo partly drawn) [Example 123, (5S,7S)-2-(2,2-difluorocyclopropyl)sulfonyl-5-(2,6-difluorophenyl)-7-fluoro-6,7-dihydro-5H-pyrrolo[1,2-b][1,2,4]triazole]: less than 5 nM; `O=S(=O)(c1nc2n(n1)[C@H](c1ccccc1)C[C@@H]2F)[C@H]1CC1(F)F` [Example 130, (5S,7S)-2-(((S)-2,2-difluorocyclopropyl)sulfonyl)-7-fluoro-5-phenyl-6,7-dihydro-5H-pyrrolo[1,2-b][1,2,4]triazole]: 3 nM.
Next, `[O-][S+](c1nc2n(n1)[C@H](c1ccccc1)C[C@@H]2F)C(F)(F)F` (stereo partly drawn) [Example 132, (5S,7S)-7-fluoro-5-phenyl-2-(trifluoromethylsulfinyl)-6,7-dihydro-5H-pyrrolo[1,2-b][1,2,4]triazole]: 11 nM.
